From US5486516A, “Furopyrimidine derivatives” (DowElanco, priority 1993, dated 1996)

Tests used:
[1] = tested on: southern armyworm (Spodopetra eridania Cramer); assay: Mite/insect screen, Southern armyworm; type: in vivo; conditions: sprayed leaves; for mortality at 200 ppm / mortality at 400 ppm: Spodoptera eridania, read-out: SAW results (percent mortality); for mortality at 200 ppm: rate 200 ppm
Experimental: (§1) The compounds of Examples were tested for miticidal and insecticidal activity in the following mite/insect screen.
(§2) Each test compound was formulated by dissolving the compound in acetone/alcohol (50:50) mixture containing 23 g of "TOXIMUL R" (sulfonate/nonionic emulsifier blend) and 13 g of "TOXIMUL S" (sulfonate/nonionic emulsifier blend) per liter. These mixtures were then diluted with water to give the indicated concentrations.
(§3) Twospotted spider mites (Tetranychus urticae Koch) and melon aphids (Aphis gossvpii Glover) were introduced on squash cotyledons and allowed to establish on both leaf surfaces. Other plants in the same treatment pot were left uninfested. The leaves were then sprayed with 5 ml of test solution using a DeVilbiss atomizing sprayer at 10 psi. Both surfaces of the leaves were covered until runoff, and then allowed to dry for one hour. Two uninfested leaves were then excised and placed into a Petri dish containing larval southern armyworm (Spodopetra eridania Cramer).
(§4) After standard exposure periods, percent mortality and phytotoxicity were evaluated. […] The following abbreviations are used in Table 3:
SAW refers to Southern armyworm

[2] = tested on: Erysiphe graminis tritici (powdery mildew); assay: Plant pathology screen (Test 1), powdery mildew on wheat; conditions: Blumeria graminis, in Triticum aestivum, foliar, read-out: POWD MDEW control rating
[3] = tested on: Botrytis cinerea (gray mold); assay: Plant pathology screen (Test 1), gray mold on grape berries; conditions: read-out: GRAY MOLD control rating
Experimental: This screen was used to evaluate the efficacy of the present compounds against a variety of different organisms that cause plant diseases.
(§5) The test compounds were formulated for application by dissolving 50 mg of the compound into 1.25 ml of solvent. The solvent was prepared by mixing 50 ml of "Tween 20" (polyoxyethylene (20) sorbitan monolaurate emulsifier) with 475 ml of acetone and 475 ml of ethanol. The solvent/compound solution was diluted to 125 ml with deionized water. The resulting formulation contains 400 ppm test chemical. Lower concentrations were obtained by serial dilution with the solvent-surfactant mixture.
(§6) The formulated test compounds were applied by foliar spray. The following plant pathogens and their corresponding plants were employed.
(§7) The formulated technical compounds were sprayed on all foliar surfaces of the host plants (or cut berry) to past run-off. Single pots of each host plant were placed on raised, revolving pedestals in a fume hood. Test solutions were sprayed on all foliar surfaces. All treatments were allowed to dry and the plants were inoculated with the appropriate pathogens within 2-4 hours.
(§8) The effectiveness of test compounds in controlling disease was rated using the following scale.

[4] = tested on: Twospotted spider mites (Tetranychus urticae Koch); assay: Mite/insect screen, twospotted spider mites; type: in vivo; conditions: sprayed leaves; for mortality at 200 ppm / mortality at 400 ppm: Tetranychus urticae, read-out: SM results (percent mortality); for mortality at 200 ppm: rate 200 ppm
Experimental: as §1, §2, §3, §4
SM refers to twospotted spider mites

[5] = tested on: Pyricularia oryzae (rice blast); assay: whole plant or invertebrate; type: in vivo; conditions: foliar, read-out: RICE BLAST control rating
[6] = tested on: Puccinia recondita tritici (leaf rust); assay: Plant pathology screen (Test 1), leaf rust on wheat; conditions: in Triticum aestivum, foliar, read-out: LEAF RUST control rating
[7] = tested on: Pseudoperonospora cubensis (downy mildew); assay: Plant pathology screen (Test 1), downy mildew on squash; conditions: foliar, read-out: DOWN MDEW control rating
Experimental: as §5, §6, §7, §8

[8] = tested on: Southern corn rootworm (Diabrotica undecimpuctata howardi Barber); assay: Mite/insect screen, corn rootworm; type: in vivo; conditions: soil; for mortality at 12 ppm / mortality at 24 ppm: Diabrotica, read-out: CRW results (percent mortality); for mortality at 12 ppm: CRW rate 12.00 ppm
Experimental: as §1, §2
Activity on Southern corn rootworm (Diabrotica undecimpuctata howardi Barber) was evaluated by adding two ml of tap water, a presoaked corn seed, and 15 g of dry sandy soil to a one ounce plastic container. The soil was treated with 1 mL of test solution containing a predetermined concentration of test compound. After six to 12 hours of drying, five 2-3 instar corn rootworm larvae were added to the individual cups, which were then capped and held at 23° C.
as §4
CRW refers to corn rootworm

[9] = tested on: melon aphids (Aphis gossvpii Glover); assay: Mite/insect screen, melon aphids; type: in vivo; conditions: sprayed leaves; for mortality at 200 ppm / mortality at 400 ppm: Aphis, read-out: MA results (percent mortality); for mortality at 200 ppm: rate 200 ppm
Experimental: as §1, §2, §3, §4
MA refers to melon aphids.

| SMILES | mortality at 200 ppm [1] | mortality at 400 ppm ([1]; rate 400 ppm) | pest or weed control at 400 µg/mL [2] | pest or weed control at 400 µg/mL [3] | mortality at 200 ppm [4] | mortality at 400 ppm ([4]; rate 400 ppm) | pest or weed control at 400 µg/mL [5] | pest or weed control at 400 µg/mL [6] | pest or weed control at 400 µg/mL [7] | mortality at 12 ppm [8] | mortality at 24 ppm ([8]; CRW rate 24.00 ppm) | mortality at 200 ppm [9] | mortality at 400 ppm ([9]; rate 400 ppm) | SAW results (percent mortality) ([1]; rate 400 ppm) | SM results (percent mortality) ([4]; rate 400 ppm) | CRW results (percent mortality) ([8]; CRW rate 24.00 ppm) | MA results (percent mortality) ([9]; rate 400 ppm) |
| --- | --- | --- | --- | --- | --- | --- | --- | --- | --- | --- | --- | --- | --- | --- | --- | --- | --- |
| Cc1cc2c(OCCC34CC5CC(CC(C5)C3)C4)ncnc2o1 [Example 38, 6-methyl-4-[2-(1-adamantyl)ethoxy]furo[2,3-d]pyrimidine] | 0% | 0% | 0 to 19% | 0 to 19% | 0% | 0% | 0 to 19% | 0 to 19% | 0 to 19% | 0% | 0% | 0% | 0% |  |  |  |  |
| Cc1cc2c(OCCc3ccc(C(F)(F)F)cc3)ncnc2o1 [Example 42, 6-methyl-4-[2-[4-(trifluoromethyl)phenyl]ethoxy]furo[2,3-d]pyrimidine] | 0% | 0% | 20 to 89% | 0 to 19% | 0% | 100% | 20 to 89% | 90 to 100% | 90 to 100% | 0% | 0% | 100% | 100% |  |  |  |  |
| Cc1coc2ncnc(NCCc3ccccc3)c12 [Example 19, 5-methyl-N-(2-phenylethyl)furo[2,3-d]pyrimidin-4-amine] | 0% | 0% | 20 to 89% | 0 to 19% | 0% | 0% | 0 to 19% | 90 to 100% | 90 to 100% | 0% | 0% | 0% | 90% |  |  |  |  |
| Cc1oc2ncnc(NCCc3ccc(Cl)cc3)c2c1C [Example 10, N-(2-(4-chlorophenyl)ethyl]-5,6-dimethylfuro[2,3-d]pyrimidin-4-amine] | 0% | 0% | 0 to 19% | 0 to 19% | 0% | 0% | 90 to 100% | 20 to 89% | 20 to 89% | 0% | 0% | 0% | 0% |  |  |  |  |
| Cc1oc2ncnc(OCCc3ccc4c(c3)OCCO4)c2c1C [Example 75, 5,6-dimethyl-4-[2-[benzo[b]-1,4-dioxan-6-yl]ethoxy]furo[2,3-d]pyrimidine] |  | 40% | 0 to 19% | 0 to 19% |  | 0% | 0 to 19% | 0 to 19% | 20 to 89% |  | 0% |  | 0% |  |  |  |  |
| COc1ccc(CCOc2ncnc3oc(C)c(C)c23)cc1 [Example 52, 4-[2-(4-methoxyphenyl)ethoxy]-5,6-dimethylfuro[2,3-d]pyrimidine] | 0% | 0% | 90 to 100% | 0 to 19% | 0% | 0% | 90 to 100% | 90 to 100% | 90 to 100% | 0% | 0% | 80% | 100% |  |  |  |  |
| Cc1oc2ncn(CCc3cccc(C(F)(F)F)c3)c(=N)c2c1C [Example 81, 3-[2-[3-(trifluoromethyl)phenyl]ethyl]-5,6-dimethylfuro[2,3-d]pyrimidin-4(3H)-imine] |  | 0% | 20 to 89% | 0 to 19% |  | 0% | 90 to 100% | 90 to 100% | 90 to 100% |  | 0% |  | 0% | 0% | 0% | 0% | 0% |
| Cc1cc2c(OCCc3ccc(OCc4ccccc4)cc3)ncnc2o1 [Example 39, 6-methyl-4-[2-[4-(phenylmethoxy)phenyl]ethoxy]furo[2,3-d]pyrimidine] | 0% | 0% | 0 to 19% | 0 to 19% | 0% | 0% | 0 to 19% | 90 to 100% | 0 to 19% | 0% | 0% | 0% | 10% |  |  |  |  |
| Cc1ccc(CCNc2ncnc3occ(C)c23)cc1 [Example 48, 5-methyl-N-[2-(4-methylphenyl)ethyl]furo[2,3-d]pyrimidin-4-amine] | 0% | 0% | 90 to 100% | 0 to 19% | 0% | 0% | 90 to 100% | 90 to 100% | 90 to 100% | 60% | 100% | 0% | 80% |  |  |  |  |
| Cc1oc2ncnc(NCCC3CCC4CCCCC4C3)c2c1C (stereo not drawn) [Example 18, N-[2-(decahydro-2-naphthyl)ethyl]-5,6-dimethylfuro[2,3-d]pyrimidin-4-amine] | 0% | 0% | 0 to 19% | 20 to 89% | 0% | 0% | 0 to 19% | 0 to 19% | 0 to 19% | 0% | 0% | 0% | 0% |  |  |  |  |
| CCCCOc1ccc(CCOc2ncnc3oc(C)c(C)c23)cc1 [Example 45, 5,6-dimethyl-4-[2-[4-(n-butoxy)phenyl]ethoxy]furo[2,3-d]pyrimidine] | 0% | 0% | 20 to 89% | 0 to 19% | 90% | 100% | 0 to 19% | 90 to 100% | 20 to 89% | 0% | 0% | 90% | 90% |  |  |  |  |
| Cc1oc2ncnc(NCCc3ccc4ccccc4c3)c2c1C [Example 22, 5,6-dimethyl-N-[2-(2-naphthyl)ethyl]furo[2,3-d]pyrimidin-4-amine] | 0% | 0% | 0 to 19% | 0 to 19% | 0% | 0% | 0 to 19% | 0 to 19% | 0 to 19% | 0% | 0% | 0% | 0% |  |  |  |  |
| Cc1oc2ncnc(NCCc3cccc(C(F)(F)F)c3)c2c1C [Example 23, 5,6-dimethyl-N-[2-[3-(trifluoromethyl)phenyl]ethyl]furo[2,3-d]pyrimidin-4-amine] | 0% | 0% | 0 to 19% | 0 to 19% | 0% | 0% | 0 to 19% | 20 to 89% | 0 to 19% | 100% | 0% | 0% | 0% |  |  |  |  |
